From patent publication US20150315241A1, “Antibiotic Peptides” (priority 2007, published 2015)
In brackets after ≈: the same amount, converted by molar mass. Read-outs that look alike come from different tables or passages of the source. Where a SMILES comes first, the peptide text is derived from it. Where no end group is shown, it is not given here. [ ]: non-standard residue; d: D form. Hyp = O=C(O)[C@@H]1C[C@@H](O)CN1; Orn = NCCC[C@H](N)C(=O)O

Key:
[1] = tested on: E. coli DC 2; experiment: Growth inhibition assay (MIC); assay type: cell-based, Escherichia coli; details: 1% TSB, 37° C., 20 hrs
Procedure, shortened: (§1)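 Bacteria grown overnight in NB at 37° C. were adjusted to 5×10^6 CFU/mL in 1% TSB and mixed 1:1 with a two-fold peptide series (final 125 μg/mL–60 ng/mL). After 20 hrs at 37° C., A595 was read; triplicates.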

[2] = tested on: E. coli BL 21 AI; experiment: Growth inhibition assay (MIC); assay type: cell-based, Escherichia coli; details: 1% TSB, 37° C., 20 hrs
Procedure, shortened: as §1

[3] = tested on: E. coli D31; assay type: cell-based, Escherichia coli; details: D31, 20 h
Procedure, shortened: (§2)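 Peptides were serially diluted two-fold in 1% TSB to give final concentrations from 125 μg/mL to 60 ng/mL. Bacteria grown overnight in nutrient broth at 37° C. were added at 5×10^6 CFU/mL. Plates were incubated 20 hrs at 37° C. and absorbance at 595 nm recorded.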

[4] = tested on: E. coli 45849; experiment: Growth inhibition assay (MIC); assay type: cell-based, Escherichia coli
Procedure, shortened: as §2

[5] = tested on: S. enterica subsp. Enterica serovar. typhi G10215 ATCC 700408; assay type: cell-based, Salmonella enterica; details: ATCC 700408, 20 h
Procedure, shortened: as §2

[6] = tested on: E. coli 10233; assay type: cell-based, Escherichia coli
Procedure, shortened: as §1

[7] = tested on: E. coli 1103; assay type: cell-based, Escherichia coli
Procedure, shortened: as §1

[8] = tested on: K. pneumonia 681; assay type: cell-based, Klebsiella pneumoniae
Procedure, shortened: as §1

[9] = tested on: S. typhi S5; assay type: cell-based, Salmonella typhi; details: S5, 20 h
Procedure, shortened: as §2

[10] = tested on: B. subtilis 347; assay type: cell-based, Bactillus subtillis
Procedure, shortened: as §1

[11] = tested on: K. Pneumonia 123132; experiment: Growth inhibition assay (MIC); assay type: cell-based, Klebsiella pneumoniae
Procedure, shortened: as §2

[12] = tested on: K. Pneumonia K6, ATCC 700603; experiment: Growth inhibition assay (MIC); assay type: cell-based, Klebsiella pneumoniae; details: multidrug resistant strain; 1% TSB, 37° C., 20 hrs
Procedure, shortened: as §2

[13] = tested on: M. luteus ATCC 10240; assay type: cell-based, Micrococcus luteus
Procedure, shortened: as §1

[14] = tested on: Mycobacterium vaccae; assay type: cell-based
Protocol: The minimal inhibition concentrations (MIC) of the apidaecin-derived peptides and peptide-derivatives were determined by a growth inhibition assay using a serial peptide dilution in sterilized round-bottom 96-well plates (polystyrene, U-bottom, Greiner Bio-One GmbH) with a final volume of 100 μL per well. The bacteria, e.g., E. coli BL21 A1, were grown in nutrient broth (NB, Carl Roth GmbH+Co. KG, Karlsruhe, Germany) at 37° C. over night. To each well of the 96-well plate, 50 μL of the overnight culture adjusted to 5×10^6 CFU/mL in 1% TSB were added. Lyophilized peptides and peptidomimetics were dissolved in 1% TSB (tryptic soy broth) or water to give a final concentration of 250 μg/mL. Fifty μL of the peptide or peptidomimetics solution were added to the first well of a row on the plate and mixed. Fifty μL of the first well containing the peptide solution were transferred to the second well, mixed and again 50 μL transferred to the next well and so on. Thereby, a two-fold dilution series was obtained starting at 250 μg/mL in the first well down to 120 ng/mL in the 12th well of a row giving a final peptide or peptidomimetics concentration from 125 μg/mL (well 1) to 60 ng/mL (well 12). Plates were incubated at 37° C. for 20 hrs. The absorbance was measured at 595 nm using a TECAN micro plate spectrophotometer (Tecan, Germany). All peptides and peptidomimetics were measured in triplicates. Sterilized water was used as a negative control.
The bacteria strains were tested: • Eschericha coli 1103, 10233, BL 21 AI, DC 2, • Klebsiella pneumoniae 681, • Micrococcus luteus ATCC 10240, • Mycobacterium vaccae • Bactillus subtillis 347.

[15] = tested on: R. radiobatter ATCC 15955; experiment: Growth inhibition assay (MIC); assay type: cell-based, Rhizobium radiobacter
Procedure, shortened: as §2

[16] = tested on: E. coli BL21 AI
Protocol: The induction of resistance strains was determined according to the macro dilution method under NCCLS-conditions (National Committee for Clinical Laboratory Standards—now Clinical and Laboratory Standards Institute Wayne, Pa., USA, NCCLS-Guideline, M7-A5, Vol. 20, Nr. 2; 2000).
Firstly, minimal inhibition concentrations (MIC) were determined for the peptides to be examined as described in example 3.2. To determine induction of resistance continued dilutions of the peptide with concentrations ranging from 3 fold to 4 fold above to below the MIC were chosen. The test was performed in sterile 96-well microtiter plates with round bottoms (Polystyrene, U-bottom, Greiner Bio-One GmbH, Germany) and 200 μL final volume per well. The freeze-dried peptide or peptide derivatives were dissolved in water and diluted in respect to the MIC in 1% TSB (tryptic soy broth) to obtain a volume of 100 μL. […] The dilutions within the series were twofold.
The bacteria, E. coli BL21 AI, were grown overnight at 37° C. in nutrient broth (NB, Carl Roth GmbH+Co. KG, Karlsruhe, Germany) and diluted to 5×10^6 colony forming units (CFU)/mL in 1% TSB. To start the assay 100 μL of the bacteria dilution was added per well of the microtiter plate loaded with peptide. After incubating the plates for 24 h at 37° C., the absorption was determined at 595 nm using a TECAN microtiter plate reader (Tecan, Germany).
MIC values were calculated as described in example 3.2. The test was repeated using new dilution series with peptide concentrations adapted to the new determined MIC values and using the bacteria culture that grew despite the presence of the inhibitory peptide. This bacteria culture (1st passage) was diluted to 5×10^6 CFU/mL in 1% TSB. […] The test was repeated again with using new dilution series with peptide concentrations adapted to the new determined MIC values and using the bacteria culture that grew despite the presence of the inhibitory peptide (2nd passage). The same procedure was applied for about 8 further passages.
As a control a untreated E. coli BL21 AI culture was chosen and passaged without inhibitory peptides. All peptides and peptide derivatives were measured in triplicates. The number of passages was chosen dependent on the rapidity of induction of resistance and commonly was 10 passages over 10 continuous days.

[17] = multidrug resistant strain, 1% TSB, 37° C., 20 hrs

Compound	MIC E. coli DC 2 [1] [µg/mL]	MIC E. coli BL 21 AI [2] [µg/mL]	MIC E. coli D31 [3] [µg/mL]	MIC S. enterica subsp. Enterica serovar. typhi G10215 ATCC 700408 [5] [µg/mL]	MIC S. typhi S5 [9] [µg/mL]	MIC K. Pneumonia K6, ATCC 700603 [12] [µg/mL]	MIC E. coli 45849 [4, 17] [µg/mL]	MIC E. coli 10233 ([6]; 10233, 20 h) [µg/mL]	MIC E. coli 1103 ([7]; 1103, 20 h) [µg/mL]	MIC K. pneumonia 681 ([8]; 20 h) [µg/mL]	MIC B. subtilis 347 ([10]; 347, 20 h) [µg/mL]	MIC K. Pneumonia 123132 [11, 17] [µg/mL]	MIC M. luteus ATCC 10240 ([13]; ATCC 10240, 20 h) [µg/mL]	MIC Mycobacterium vaccae ([14]; 20 h) [µg/mL]	MIC R. radiobatter ATCC 15955 [15, 17] [µg/mL]	also measured
CC[C@H](C)[C@H](NC(=O)[C@H](Cc1ccc(O)cc1)NC(=O)[C@@H](NC(=O)[C@@H]1CCCN1C(=O)[C@H](CCCNC(=N)N)NC(=O)[C@H](CC(N)=O)NC(=O)[C@H](CC(N)=O)NC(=O)CN)C(C)C)C(=O)N1CCC[C@H]1C(=O)N[C@@H](CCCN)C(=O)N1C[C@H](O)C[C@H]1C(=O)N[C@@H](CCCNC(=N)N)C(=O)N1CCC[C@H]1C(=O)N1CCC[C@H]1C(=O)N[C@@H](Cc1c[nH]cn1)C(=O)N1CCC[C@H]1C(=O)N[C@@H](CCCNC(=N)N)C(=O)N[C@@H](CC(C)C)C(N)=O [compound 11] (H-GNNRPVYIP[Orn][Hyp]RPPHPRL-NH2)	0.98 (≈ 0.465 µM)	0.49 (≈ 0.232 µM)	8 (≈ 3.79 µM)	<0.25	<0.5	8 (≈ 3.79 µM)										MIC E. coli 45849 ([4]; 45849, 20 h): 1 µg/mL (≈ 0.474 µM); MIC E. coli 10233 ([6]; 1% TSB, 37° C., 20 hrs): 3.91 µg/mL (≈ 1.85 µM); MIC E. coli 1103 ([7]; 1% TSB, 37° C., 20 hrs): 3.9 µg/mL (≈ 1.85 µM); MIC K. pneumonia 681 ([8]; 1% TSB, 37° C., 20 hrs): 1.95 µg/mL (≈ 0.924 µM); MIC B. subtilis 347 ([10]; 1% TSB, 37° C., 20 hrs): 125 µg/mL (≈ 59.3 µM); MIC K. Pneumonia 123132 ([11]; 20 h): 8 µg/mL (≈ 3.79 µM); MIC M. luteus ATCC 10240 ([13]; 1% TSB, 37° C., 20 hrs): 1.95 µg/mL (≈ 0.924 µM); MIC Mycobacterium vaccae ([14]; 1% TSB, 37° C., 20 hrs): 125 µg/mL (≈ 59.3 µM); MIC R. radiobatter ATCC 15955 ([15]; ATCC 15955, 20 h): <0.16 µg/mL
CC[C@H](C)[C@H](NC(=O)[C@H](Cc1ccc(O)cc1)NC(=O)[C@@H](NC(=O)[C@@H]1CCCN1C(=O)[C@H](CCCNC(=N)N)NC(=O)[C@H](CC(N)=O)NC(=O)[C@H](CC(N)=O)NC(=O)[C@@H](N)CCCN)C(C)C)C(=O)N1CCC[C@H]1C(=O)N[C@@H](CCCNC(=N)N)C(=O)N1CCC[C@H]1C(=O)N[C@@H](CCCNC(=N)N)C(=O)N1CCC[C@H]1C(=O)N1CCC[C@H]1C(=O)N[C@@H](Cc1c[nH]cn1)C(=O)N1CCC[C@H]1C(=O)N[C@@H](CCCNC(=N)N)C(=O)N[C@@H](CC(C)C)C(N)=O [compound 38] (H-[Orn]NNRPVYIPRPRPPHPRL-NH2)	0.98 (≈ 0.447 µM)	1.95 (≈ 0.889 µM)	2 (≈ 0.912 µM)	2 (≈ 0.912 µM)	<0.5	4 (≈ 1.82 µM)	0.5 (≈ 0.228 µM)	1.95 (≈ 0.889 µM)	3.91 (≈ 1.78 µM)	1.95 (≈ 0.889 µM)	62.5 (≈ 28.5 µM)	2 (≈ 0.912 µM)	1.95 (≈ 0.889 µM)	125 (≈ 57 µM)	1.3 (≈ 0.593 µM)	
CC[C@H](C)[C@H](NC(=O)[C@H](Cc1ccc(O)cc1)NC(=O)[C@@H](NC(=O)[C@@H]1CCCN1C(=O)[C@H](CCCNC(=N)N)NC(=O)[C@H](CC(N)=O)NC(=O)[C@H](CC(N)=O)NC(=O)[C@H](CCCN)NC(C)=O)C(C)C)C(=O)N1CCC[C@H]1C(=O)N[C@@H](CCCNC(=N)N)C(=O)N1CCC[C@H]1C(=O)N[C@@H](CCCNC(=N)N)C(=O)N1CCC[C@H]1C(=O)N1CCC[C@H]1C(=O)N[C@@H](Cc1c[nH]cn1)C(=O)N1CCC[C@H]1C(=O)N[C@@H](CCCNC(=N)N)C(=O)N[C@@H](CC(C)C)C(N)=O [compound 39] (Ac-[Orn]NNRPVYIPRPRPPHPRL-NH2)	0.98 (≈ 0.439 µM)	1.95 (≈ 0.873 µM)	4 (≈ 1.79 µM)	4 (≈ 1.79 µM)	<0.5	16 (≈ 7.16 µM)	1 (≈ 0.447 µM)	1.95 (≈ 0.873 µM)	3.91 (≈ 1.75 µM)	3.9 (≈ 1.75 µM)	125 (≈ 55.9 µM)	4 (≈ 1.79 µM)	0.98 (≈ 0.439 µM)	125 (≈ 55.9 µM)	0.33 (≈ 0.148 µM)	
GNNRPVYIPQPRPPHPRI [compound 1]	3.91	0.98	64	2		64		1.95	1.95	15.62	>125		31.25	>125		
H-GNNRPVYIPQPRPPHPRL-OH [SEQ ID No. 2, GNNRPVYIPQPRPPHPRL-OH, reference compound]																passage after which first resistance strains were obtained ([16]; 10 passages): 2nd; MIC-value in the 10th passage ([16]; 10th passage): 128 µg/mL
